The results in this text go back to ChEMBL document CHEMBL4052690, “2-Chlorophenyl-substituted benzofuro[3,2-b]pyridines with enhanced topoisomerase inhibitory activity: The role of the chlorine substituent” (Bioorg Med Chem Lett, 2017).

As usually defined, the IC50 is the concentration that inhibits the measured activity by half. The low end stands for greater potency, the high end for weaker potency. Broadly, the inhibition is the share of the control response that was lost under treatment.

The target in assay [1] is T1, DNA topoisomerase 1 (Homo sapiens) (UniProt P11387).
T1 sequence (whole entry): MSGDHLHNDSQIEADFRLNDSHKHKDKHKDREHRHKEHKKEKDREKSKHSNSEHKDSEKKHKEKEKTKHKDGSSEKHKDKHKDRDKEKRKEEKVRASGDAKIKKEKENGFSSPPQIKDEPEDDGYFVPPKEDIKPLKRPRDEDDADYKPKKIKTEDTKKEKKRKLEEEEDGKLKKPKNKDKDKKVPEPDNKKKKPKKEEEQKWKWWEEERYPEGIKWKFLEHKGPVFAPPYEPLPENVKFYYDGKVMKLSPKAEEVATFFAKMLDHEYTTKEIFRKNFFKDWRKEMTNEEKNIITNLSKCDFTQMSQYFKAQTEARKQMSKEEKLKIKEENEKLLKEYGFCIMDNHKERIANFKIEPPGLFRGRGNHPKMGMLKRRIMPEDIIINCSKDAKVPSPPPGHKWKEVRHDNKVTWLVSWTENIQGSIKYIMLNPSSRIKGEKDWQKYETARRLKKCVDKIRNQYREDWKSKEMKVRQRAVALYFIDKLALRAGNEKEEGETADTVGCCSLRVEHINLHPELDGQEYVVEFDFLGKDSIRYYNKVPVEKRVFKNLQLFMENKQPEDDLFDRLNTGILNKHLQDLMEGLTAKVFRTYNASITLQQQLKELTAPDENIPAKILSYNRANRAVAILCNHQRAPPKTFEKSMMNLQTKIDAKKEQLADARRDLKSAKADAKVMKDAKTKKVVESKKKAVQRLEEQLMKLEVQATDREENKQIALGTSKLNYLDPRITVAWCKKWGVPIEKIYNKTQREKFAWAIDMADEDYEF
Briefly: Inhibition of human recombinant DNA topoisomerase 1 assessed as reduction in enzyme-mediated relaxation of supercoiled pBR322 plasmid DNA at 100 uM in presence of 0.1% BSA by ethidium bromide staining based gel electrophoresis and UV spectroscopy relative to camptothecin.

For assay [2], the species on record is Homo sapiens. As to the kind of experiment: Inhibition of human recombinant DNA topoisomerase 2 assessed as reduction in enzyme-mediated relaxation of supercoiled pBR322 plasmid DNA at 20 uM in presence of 0.1% BSA by ethidium bromide staining based gel electrophoresis and UV spectroscopy relative to etoposide.
Another assay relates to HeLa. As to the kind of experiment: Antiproliferative activity against human HeLa cells after 72 hrs by CCK8 assay. It counts as functional, cell-based. In general terms: Tetrazolium dyes change colour on reduction, which living cells bring about.
The species entered for assay [3] is Homo sapiens. Briefly: Inhibition of human recombinant DNA topoisomerase 2 assessed as reduction in enzyme-mediated relaxation of supercoiled pBR322 plasmid DNA at 100 uM in presence of 0.1% BSA by ethidium bromide staining based gel electrophoresis and UV spectroscopy relative to etoposide.
For the next assay, the system named is HCT-15. Briefly: Antiproliferative activity against human HCT15 cells after 72 hrs by CCK8 assay. It counts as functional, cell-based. The conditions noted are these: HCT-15, 72 h.
A further assay concerns T47D. Briefly: Antiproliferative activity against human T47D cells after 72 hrs by CCK8 assay. It counts as functional, cell-based.
Assay [4] deals with T1, DNA topoisomerase 1 (Homo sapiens). Briefly: Inhibition of human recombinant DNA topoisomerase 1 assessed as reduction in enzyme-mediated relaxation of supercoiled pBR322 plasmid DNA at 100 uM in presence of 0.1% BSA by ethidium bromide staining based gel electrophoresis and UV spectroscopy.
For assay [5], the species on record is Homo sapiens. Briefly: Inhibition of human recombinant DNA topoisomerase 2 assessed as reduction in enzyme-mediated relaxation of supercoiled pBR322 plasmid DNA at 20 uM in presence of 0.1% BSA by ethidium bromide staining based gel electrophoresis and UV spectroscopy.
The species entered for assay [6] is Homo sapiens. Briefly: Inhibition of human recombinant DNA topoisomerase 2 assessed as reduction in enzyme-mediated relaxation of supercoiled pBR322 plasmid DNA at 100 uM in presence of 0.1% BSA by ethidium bromide staining based gel electrophoresis and UV spectroscopy.

Turning to `Clc1cccc(-c2cc(-c3ccsc3)c3oc4ccccc4c3n2)c1`, the fold change (FC) was found to be 0.81 in assay [1], 0.39 in the assay filed under Homo sapiens [2] and 1.79 in the assay filed under Homo sapiens [3]. The values for the half-maximal inhibitory concentration (IC50) in the assay on HeLa, in the assay with HCT-15 and in the assay on T47D were greater than 50 µM, 13.5 µM and 13.2 µM, respectively. The figures for the inhibition (in assay [4]; in the assay filed under Homo sapiens [5]; in the assay listed under Homo sapiens [6]) were 70.2%, 12.2% and 93.8%, respectively.
`Clc1cccc(-c2cc(-c3ccoc3)c3oc4ccccc4c3n2)c1`: the fold change (FC) turned out to be 0.97 in [1], 1.6 in the assay listed under Homo sapiens [2] and 1.65 in the assay listed under Homo sapiens [3]. The concentration for half-maximal inhibition (IC50) in the assay with HeLa was 41.1 µM; in the assay on HCT-15 it was 17.6 µM; in the assay on T47D, 18.1 µM. Further, the inhibition was determined as 84.3% in assay [4], 50.4% in the assay listed under Homo sapiens [5] and 86.1% in the assay filed under Homo sapiens [6].
With `Clc1cccc(-c2cc(-c3ccco3)c3oc4ccccc4c3n2)c1`, the fold change (FC) in [1] worked out at 1.15; in the assay filed under Homo sapiens [2] it was 1.51; in the assay filed under Homo sapiens [3] it was 1.3. Moreover, the IC50 in the assay with HeLa was 40.8 µM; in the assay with HCT-15 it was greater than 50 µM; in the assay with T47D it was 23.2 µM. Also, the inhibition in [4] worked out at 100%; in the assay listed under Homo sapiens [5], 55.4%; in the assay listed under Homo sapiens [6], 85.5%.
